Measurements from patent US9624214B2, “Amino-substituted imidazo[1,2-a]pyridinecarboxamides and their use” (BAYER PHARMA AKTIENGESELLSCHAFT, priority 2012, dated 2017).
Where a name gives a salt, the structure may show the parent alone.

Target: T1, recombinant guanylate cyclase reporter cell line (Rattus norvegicus, UniProt P19686+P20595)
T1 construct: expressed in transfected cells
T1 sequence (P20595 1-619): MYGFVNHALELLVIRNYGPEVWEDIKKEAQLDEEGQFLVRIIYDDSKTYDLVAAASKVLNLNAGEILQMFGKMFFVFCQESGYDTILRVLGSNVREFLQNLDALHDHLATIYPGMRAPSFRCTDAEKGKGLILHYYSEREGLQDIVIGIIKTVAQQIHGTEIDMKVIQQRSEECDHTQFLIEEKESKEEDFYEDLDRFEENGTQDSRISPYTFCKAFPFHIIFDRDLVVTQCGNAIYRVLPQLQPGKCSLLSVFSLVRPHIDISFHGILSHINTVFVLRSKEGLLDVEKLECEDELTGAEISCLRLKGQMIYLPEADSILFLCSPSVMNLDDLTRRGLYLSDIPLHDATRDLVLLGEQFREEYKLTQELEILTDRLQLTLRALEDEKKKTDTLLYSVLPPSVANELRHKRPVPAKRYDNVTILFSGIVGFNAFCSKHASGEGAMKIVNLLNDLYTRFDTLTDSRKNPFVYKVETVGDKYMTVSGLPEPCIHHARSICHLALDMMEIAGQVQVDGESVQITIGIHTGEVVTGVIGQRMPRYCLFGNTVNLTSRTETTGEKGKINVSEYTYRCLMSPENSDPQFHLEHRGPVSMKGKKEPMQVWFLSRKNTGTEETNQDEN
T1 sequence (P19686 1-690): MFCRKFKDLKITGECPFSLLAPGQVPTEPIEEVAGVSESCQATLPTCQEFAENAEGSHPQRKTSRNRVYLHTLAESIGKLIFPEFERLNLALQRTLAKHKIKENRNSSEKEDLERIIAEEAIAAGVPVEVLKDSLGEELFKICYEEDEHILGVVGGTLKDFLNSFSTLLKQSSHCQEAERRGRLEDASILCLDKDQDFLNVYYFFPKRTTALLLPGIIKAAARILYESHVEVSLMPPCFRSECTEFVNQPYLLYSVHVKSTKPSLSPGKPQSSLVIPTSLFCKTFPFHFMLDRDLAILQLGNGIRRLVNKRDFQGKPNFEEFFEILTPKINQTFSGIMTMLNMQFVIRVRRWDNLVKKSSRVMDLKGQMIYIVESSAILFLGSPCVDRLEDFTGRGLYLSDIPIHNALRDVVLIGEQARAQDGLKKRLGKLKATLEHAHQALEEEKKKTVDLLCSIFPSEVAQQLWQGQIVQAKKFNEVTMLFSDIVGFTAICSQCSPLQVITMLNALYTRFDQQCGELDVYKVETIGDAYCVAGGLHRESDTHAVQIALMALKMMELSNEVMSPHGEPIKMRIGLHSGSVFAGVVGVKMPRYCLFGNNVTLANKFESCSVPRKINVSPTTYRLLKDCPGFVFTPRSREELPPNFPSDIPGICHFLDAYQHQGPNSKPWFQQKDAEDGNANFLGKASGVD
Experiment: B-2. Action on recombinant guanylate cyclase reporter cell line
Type: cell-based
Conditions: MEC = minimal effective concentration; in some cases mean values from individual determinations
Method in brief: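 MEC values, meaning the lowest concentration producing a detectable response, were taken from a recombinant cyclase reporter cell assay. Where repeated, individual determinations were averaged.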

SMILES	MEC [µM]
COCC(N)CNC(=O)c1c(C)nc2c(OCc3c(F)cccc3F)cccn12 (single isomer, unassigned) [Example 247, ent-N-(2-Amino-3-methoxypropyl)-8-[(2,6-difluorobenzyl)oxy]-2-methylimidazo[1,2-a]pyridine-3-carboxamide]	3.00
CCCC(C)(N)CNC(=O)c1c(C)nc2c(OCc3c(F)ccc(F)c3F)cc(C)cn12 (single isomer, unassigned) [Example 295, ent-N-(2-amino-2-methylpentyl)-2,6-dimethyl-8-[(2,3,6-trifluorobenzyl)oxy]imidazo[1,2-a]pyridine-3-carboxamide]	0.10
CCCC(C)(N)CNC(=O)c1c(C)nc2c(OCc3c(F)ccc(F)c3F)cc(C)cn12 (single isomer, unassigned) [Example 304, ent-N-(2-amino-2-methylpentyl)-2,6-dimethyl-8-[(2,3,6-trifluorobenzyl)oxy]imidazo[1,2-a]pyridine-3-carboxamide]	0.10
Cc1cc(OCc2c(F)cccc2F)c2nc(C)c(C(=O)NC3CCC(N)C3)n2c1 (single isomer, unassigned) [Example 309, ent-N-(3-aminocyclopentyl)-8-[(2,6-difluorobenzyl)oxy]-2,6-dimethylimidazo[1,2-a]pyridine-3-carboxamide]	0.30
Cc1nc2c(OCc3c(F)cccc3F)cccn2c1C(=O)NC(CN)CC(C(F)(F)F)C(F)(F)F (single isomer, unassigned; enantiomer a) [Example 7, ent-N-[1-Amino-5,5,5-trifluoro-4-(trifluoromethyl)pentan-2-yl]-8-[(2,6-difluorobenzyl)oxy]-2-methylimidazo[1,2-a]pyridine-3-carboxamide (Enantiomer A)]	1.00
Cc1nc2c(OCc3c(F)cccc3F)cccn2c1C(=O)NC(CN)c1ccc(F)c(F)c1 (single isomer, unassigned; enantiomer a) [Example 12, ent-N-[2-Amino-1-(3,4-difluorophenyl)ethyl]-8-[(2,6-difluorobenzyl)oxy]-2-methylimidazo[1,2-a]-pyridine-3-carboxamide (Enantiomer A)]	1.00
Cc1nc2c(OCc3c(F)cccc3F)cccn2c1C(=O)NC(C)CN (single isomer, unassigned; enantiomer a) [Example 19, ent-N-(1-Aminopropan-2-yl)-8-[(2,6-difluorobenzyl)oxy]-2-methylimidazo[1,2-a]pyridine-3-carboxamide (Enantiomer A)]	1.66
Cc1nc2c(OCc3c(F)cccc3F)cc(Cl)cn2c1C(=O)NCC(C)N (single isomer, unassigned; enantiomer a) [Example 29, ent-N-(2-Aminopropyl)-6-chloro-8-[(2,6-difluorobenzyl)oxy]-2-methylimidazo[1,2-a]pyridine-3-carboxamide (Enantiomer A)]	0.20
Cc1cc(OCc2c(F)cccc2F)c2nc(C)c(C(=O)NCC(C)(N)C3CC3)n2c1 (single isomer, unassigned; enantiomer a) [Example 260, ent-N-(2-Amino-2-cyclopropylpropyl)-8-[(2,6-difluorobenzyl)oxy]-2,6-dimethylimidazo[1,2-a]-pyridine-3-carboxamide (Enantiomer A)]	0.10
Cc1nc2c(OCc3c(F)cccc3F)cccn2c1C(=O)NCC(C)(N)CCOCc1ccccc1 (single isomer, unassigned; enantiomer a) [Example 266, ent-N-[2-Amino-4-(benzyloxy)-2-methylbutyl]-8-[(2,6-difluorobenzyl)oxy]-2-methylimidazo[1,2-a]pyridine-3-carboxamide (Enantiomer A)]	0.03
Cc1cc(OCc2c(F)cccc2F)c2nc(C)c(C(=O)NCC(C)(N)CO)n2c1 (single isomer, unassigned; enantiomer a) [Example 268, ent-N-(2-Amino-3-hydroxy-2-methylpropyl)-8-[(2,6-difluorobenzyl)oxy]-2,6-dimethylimidazo-[1,2-a]pyridine-3-carboxamide (Enantiomer A)]	0.55
Cc1cc(OCc2c(F)cccc2F)c2nc(C)c(C(=O)NCC(C)(N)CCO)n2c1 (single isomer, unassigned; enantiomer a) [Example 271, ent-N-(2-Amino-4-hydroxy-2-methylbutyl)-8-[(2,6-difluorobenzyl)oxy]-2,6-dimethylimidazo[1,2-a]pyridine-3-carboxamide (Enantiomer A)]	0.30
Cc1nc2c(OCc3c(F)cccc3F)cccn2c1C(=O)NCC(C)(N)CCO (single isomer, unassigned; enantiomer a) [Example 272, ent-N-(2-Amino-4-hydroxy-2-methylbutyl)-8-[(2,6-difluorobenzyl)oxy]-2-methylimidazo[1,2-a]-pyridine-3-carboxamide (Enantiomer A)]	5.5
CCC(C)(N)CNC(=O)c1c(C)nc2c(OCc3c(F)ccc(F)c3F)cc(C)cn12 (single isomer, unassigned; enantiomer a) [Example 274, ent-N-(2-Amino-2-methylbutyl)-2,6-dimethyl-8-[(2,3,6-trifluorobenzyl)oxy]imidazo[1,2-a]-pyridine-3-carboxamide (Enantiomer A)]	0.10
CCC(C)(N)CNC(=O)c1c(C)nc2c(OCc3c(F)cccc3F)cc(OC)cn12 (single isomer, unassigned; enantiomer a) [Example 279, ent-N-(2-amino-2-methylbutyl)-8-[(2,6-difluorobenzyl)oxy]-6-methoxy-2-methylimidazo[1,2-a]pyridine-3-carboxamide (Enantiomer A)]	0.3
Cc1cc(OCc2c(F)cccc2F)c2nc(C)c(C(=O)NCC(C)(N)CF)n2c1 (single isomer, unassigned; enantiomer a) [Example 283, ent-N-(2-amino-3-fluoro-2-methylpropyl)-8-[(2,6-difluorobenzyl)oxy]-2,6-dimethylimidazo[1,2-a]pyridine-3-carboxamide (Enantiomer A)]	0.3
Cc1cc(OCc2c(F)ccc(F)c2F)c2nc(C)c(C(=O)NCC(C)(N)CF)n2c1 (single isomer, unassigned; enantiomer a) [Example 285, ent-N-(2-amino-3-fluoro-2-methylpropyl)-2,6-dimethyl-8-[(2,3,6-trifluorobenzyl)oxy]imidazo[1,2-a]pyridine-3-carboxamide (Enantiomer A)]	0.3
CCC(C)(N)CNC(=O)c1c(C)nc2c(OCc3c(F)cccc3F)cc(C(F)F)cn12 (single isomer, unassigned; enantiomer a) [Example 287, ent-N-(2-amino-2-methylbutyl)-8-[(2,6-difluorobenzyl)oxy]-6-(difluoromethyl)-2-methylimidazo[1,2-a]pyridine-3-carboxamide Formate (Enantiomer A)]	0.3
CCC(C)(N)CNC(=O)c1c(C)nc2c(OCc3c(F)cccc3F)cc(C(F)F)cn12 (single isomer, unassigned; enantiomer a) [Example 288, ent-N-(2-amino-2-methylbutyl)-8-[(2,6-difluorobenzyl)oxy]-6-(difluoromethyl)-2-methylimidazo[1,2-a]pyridine-3-carboxamide (Enantiomer A)]	0.3
Cc1nc2c(OCc3c(F)cccc3F)cc(C(F)F)cn2c1C(=O)NCC(C)(N)CF (single isomer, unassigned; enantiomer a) [Example 291, ent-N-(2-amino-3-fluoro-2-methylpropyl)-8-[(2,6-difluorobenzyl)oxy]-6-(difluoromethyl)-2-methylimidazo[1,2-a]pyridine-3-carboxamide (Enantiomer A)]	1.0
Cc1cc(OCc2c(F)cccc2F)c2nc(C)c(C(=O)NCC(C)(N)Cc3ccccn3)n2c1 (single isomer, unassigned; enantiomer a) [Example 298, ent-N-[2-amino-2-methyl-3-(pyridin-2-yl)propyl]-8-[(2,6-difluorobenzyl)oxy]-2,6-dimethyl-imidazo[1,2-a]pyridine-3-carboxamide (Enantiomer A)]	0.10
